Source: ChEMBL document CHEMBL1147610, “Orally active PDE4 inhibitors with therapeutic potential” (Bioorg Med Chem Lett, 2004)

Key:
Phosphodiesterase 4 [1] = target: T1, Phosphodiesterase 4 (Homo sapiens, UniProt P27815+Q08499+Q07343+Q08493); assay: Inhibition of PDE4 from U937 monocytic cells; assay type: cell-based; settings: u-937
Rattus norvegicus [2] = assay: Inhibition of LPS-induced TNF-alpha production in rats 0.5 hr after oral dose; assay type: functional; settings: for ED50: read-out: ID50 (the source's name)
Homo sapiens = species on record: Homo sapiens; assay: Inhibition of LPS induced TNF-alpha production in human whole blood; assay type: functional; settings: read-out: ID50 (the source's name)
Rattus norvegicus [3] = species on record: Rattus norvegicus; assay: (§1) Inhibition of gastric emptying in rats; assay type: functional; settings: Stomach, read-out: ID50 (the source's name)
Cavia porcellus = assay: Inhibition of SRS-A-mediated bronchoconstriction and airway microvascular leakage in sensitized guinea pigs […] 1 hr prio to challenge; assay type: functional; settings: Lung, route oral, read-out: ID50 (the source's name)
Rattus norvegicus [4] = species on record: Rattus norvegicus; assay: as §1; assay type: functional, Stomach
Phosphodiesterase 4 [5] = target: T1, Phosphodiesterase 4; assay: Inhibition of PDE4 (Phosphodiesterase 4) from U937 cells; assay type: cell-based; settings: U-937, concentration not given here

IC50 (Phosphodiesterase 4 [1]) | SMILES | ED50 (Rattus norvegicus [2]) | Inhibition (Rattus norvegicus [2]) | also measured
29 nM | COc1ccc([C@]2(C#N)C[C@H]3C[C@@H](C(=O)NO)C[C@H]3C2)cc1OCC1CC1 | 3 mg/kg | – | –
9.7 nM | COc1ccc([C@]2(C#N)C[C@H]3C[C@@H](C(=O)NO)C[C@H]3C2)cc1OC1CCCC1 | – | 52% | –
> 300 nM | COc1ccc([C@@]2(C#N)C[C@H]3C[C@@H](C(=O)O)C[C@H]3C2)cc1OC1CCCC1 | – | – | –
1.3 nM | COc1ccc([C@]2(C#N)C[C@H]3C[C@@H](C(=O)O)C[C@H]3C2)cc1OC1Cc2ccccc2C1 | 1.7 mg/kg | – | –
150 nM | COc1ccc([C@]2(C#N)C[C@H]3C[C@H](C(=O)O)C[C@H]3C2)cc1OC1CCCC1 | 3.8 mg/kg | – | –
62 nM | COc1ccc([C@]2(C#N)C[C@H]3C[C@@H](C(=O)O)C[C@H]3C2)cc1OC(C)C | – | 57% | –
26 nM | CCOc1cc([C@]2(C#N)C[C@H]3C[C@@H](C(=O)O)C[C@H]3C2)ccc1OC | 2.9 mg/kg | – | IC50 (Homo sapiens): 5800 nM; ED50 (Rattus norvegicus [3]): 17 mg/kg
62 nM | COc1ccc([C@]2(C#N)C[C@H]3C[C@@H](C(=O)NO)C[C@H]3C2)cc1OC | – | 55% | –
> 300 nM | COc1ccc([C@@]2(C#N)C[C@H]3C[C@H](C(=O)O)C[C@H]3C2)cc1OC1CCCC1 | – | – | –
9 nM | COc1ccc([C@]2(C#N)C[C@H]3C[C@@H](C(=O)O)C[C@H]3C2)cc1OC1CCCC1 | 0.4 mg/kg | – | ED50 (Cavia porcellus): 9.6 mg/kg; Inhibition (Rattus norvegicus [4]): 73%; IC50 (Homo sapiens): 21000 nM
0.85 nM | COc1ccc([C@]2(C#N)C[C@H]3C[C@@H](C(=O)NO)C[C@H]3C2)cc1OC1Cc2ccccc2C1 | – | 17% | –
– | COc1ccc([C@]2(C#N)CC[C@@H](C(=O)O)CC2)cc1OC1CCCC1 [CILOMILAST] | 1.7 mg/kg | – | ED50 (Cavia porcellus): 4.5 mg/kg; IC50 (Homo sapiens): 18000 nM; ED50 (Rattus norvegicus [3]): 5.7 mg/kg
100 nM | COc1ccc([C@]2(C#N)C[C@H]3C[C@@H](C(=O)O)C[C@H]3C2)cc1OCC1CC1 | – | – | –
– | CCOc1cc([C@]2(C#N)C[C@H]3C[C@@H](C(=O)NO)C[C@H]3C2)ccc1OC | 1.8 mg/kg | – | inhibition (Phosphodiesterase 4 [5]): 56%; ED50 (Cavia porcellus): 5 mg/kg; IC50 (Homo sapiens): 800 nM; ED50 (Rattus norvegicus [3]): 12 mg/kg
12 nM | COc1ccc([C@]2(C#N)C[C@H]3C[C@@H](C(=O)NO)C[C@H]3C2)cc1OC(C)C | – | 47% | –
160 nM | COc1ccc([C@]2(C#N)C[C@H]3C[C@@H](C(=O)O)C[C@H]3C2)cc1OC | – | – | –
